{"source": "patent US20080051413A1", "about": "“Nitrophenylpiperazine derivative of xanthine which relaxes tracheal airway and increases respiratory performance” (KAOHSIUNG MEDICAL UNIVERSITY, priority 2006, published 2008)", "key": {"[1]": {"test_system": "respiratory performance", "assay": "Pulmonary function after i.v. injection (RL, Cdyn, tidal volume)", "type": "in vivo", "details": "1 mg/kg i.v., guinea pig, n = 3", "description": "Animals: Male Dunkin Harley guinea pigs (350-450 g) were provide by the National Laboratory Animal Breeding and Research Center (Taipei, Taiwan) and housed under conditions of constant temperature and controlled illumination. Food and water were available and libitum. The study was approved by the Animal Care and Use Committee of the Kaohsiung Medical University.\nPulmonary Function: Guinea pegs (350-450 g) were anesthetized with pentobarbital (40 mg/kg i.p.) and maintained with further i.v. doses of 2 to 5 mg/kg when required according to methods previously described (Wu B N, Lin R J, Lo Y C, Shen K P, Wang C C, Lin Y T, and Chen I J (2004) KMUP-1, a xanthine derivative, induces relaxation of guinea-pig isolated trachea: the role of the epithelium, cyclic nucleotides and K^+ channels, Br J Pharmacol 142:1105-1114). The animal was tethered in a supine position, and the trachea was cannulated below the larynx with a short tracheal cannula via a tracheotomy. Tracheal pressure was measured by a catheter connected to the side arm of the tracheal cannula. The carotid artery and jugular vein were cannulated to monitor blood pressure and heart rate and for drug administration, respectively. Throughout the experiment, the body temperature of the guinea pig was maintained at 37_. Measurements of pulmonary cardiac function were carried out as previously described (Hsu T H, Lai Y L, and Kou Y R (1998) Acetylcholine and tachykinin receptor antagonists attenuate wood smoke-induced bronchoconstriction in Guinea pigs. Eur J Pharmacol 360:175-183). Total lung resistance (RL) and dynamic lung compliance (Cdyn) were measured on a breath-by-breath basis using a computer equipped with an A/D interface (DAS 1600; Buxco Electronics, Inc., Wilmington, N.C.) and software (version 1.5.7; Buxco Electronics, Inc.). Results obtained from the computer analysis were checked for accuracy by comparison with those calculated manually.\nAnimals were allowed to stabilize for 10 min following surgical manipulations before the test agent was administered. Intratracheal instillation was performed using a catheter placed through the tracheal tube into the bronchial system. The catheter connected to a 1-ml syringe was inserted into the trachea cannula extending 1 cm beyond the tip of the cannula for instillation of drug or vehicle. The instillation was followed by rapid intratracheal injection of 0.5 ml of air to facilitate deposition of drug or vehicle into the lungs as in the modified methods of Chung et al. (2001)(Chung W H, Bennett B M, Racz W J, Brien J F, and […] Fischer 344 rats during aminodarone-induced pulmonary fibrosis. Am J Physiol 281:L1180-L1188). The animals were pretreated intratracheally with KMUP-3 (0.5, 1.0, and 2.0 mg/kg/150 _l of saline) or an equivalent volume (150 _l) of vehicle 15 min before TNF-_(0.01 mg/kg/300 _l saline) was instilled to induce acute bronchoconstriction. In another experiments, KMUP-3 or KMUP-1 (1.0 mg/kg i.v.) were used to compare the effects on respiratory performance, indicated by changes of tidal volume, total RL, and Cdyn."}, "[2]": {"test_system": "PDE4 purified from human U-937 pronocytic cells", "assay": "Phosphodiesterase activity, PDE4", "type": "biochemical", "details": "10 _M compound, n = 3", "description": "Phosphodiesterase Activity: PDE activity was determined by the method of Nicholson et al. (Nicholson C D, Challiss R A, and Shahid M (1991) Differential modulation of tissue function and therapeutic potential of selective inhibitors of cyclic nucleotide phosphodiesterase isonzymes. Trends Pharmaclo Sci 12:19-27). PDE3 and PDE5 purified from human platelets and PDE4 purified from human U-937 pronocytic cells were used. Test compound (10 _M) or vehicle was incubated with 0.2 _g of enzyme and 1 _M cAMP containing 0.01 _M [^3H]cAMP in Tris buffer, pH 7.5, for 20 min at 25_. The reaction was terminated by boiling for 2 min, and the resulting […] was converted to adenosine by the addition of 10 mg/ml snake venom nucleotidase, which is followed by a further incubation at 37_for 10 min. Unhydrolyzed cAMP was bound to AG1-X2 resin, and the remaining [^3H]adenosine in the aqueous phase was quantitated by scintillation counting."}, "[3]": {"test_system": "guinea pig TSM strips", "assay": "Determination of nitrite in TSM strips", "details": "100 _M, 30 min, EP+ TSM, basal 0.8±0.1 _M/mg, n=3", "description": "Determination of Nitrite: To measure concentrations of nitrite (NO2^−) in guinea pig TSM strips, TSM strips were pretreated with KMUP-3 (100 _M) in Krebs' solution for 30 min. Then guinea pig TSM strips (2 ml/g tissue of methanol) were ultrasonically homogenized in an ice bath and then centrifuged at 10,000 g for 10 min at 4_. Briefly, harvestable supernatants were reacted with an equal volume of Griess reagents (1% […]/0.1% N-L-naphthylethylenediamine dihydrochloride/5% H3PO4) for 10 min to form a colored azo dye. The absorbance at 540 nm was detected by a flow-through visible spectrophotometer, and an equal volume of methanol was used for blank control."}}, "data": [{"compound": "Cn1c(=O)c2c(ncn2CCN2CCN(c3ccc([N+](=O)[O-])cc3)CC2)n(C)c1=O", "note": "[KMUP-3]", "values": [{"measurement": "Cdyn, Maximum change of baseline (%)", "setting": "[1]", "value": "50 ± 5.5", "unit": "%"}, {"measurement": "RL, Maximum change of baseline (%)", "setting": "[1]", "value": "−55 ± 4.5", "unit": "%"}, {"measurement": "Tidal Volume, Maximum change of baseline (%)", "setting": "[1]", "value": "21.7 ± 0.5", "unit": "%"}, {"measurement": "PDE4 Inhibition", "setting": "[2]", "value": "48 ± 2.1", "unit": "%"}, {"measurement": "NO2— release in comparison with the basal level", "setting": "[3]", "value": "160±15", "unit": "%"}]}]}
